d = 2'-deoxy (DNA); r = 2'-OH (RNA)
Tested on: LHPP gene
Assay: High-throughput screening of saRNAs targeting LHPP promoter: LHPP mRNA by one-step RT-qPCR in Huh7 cells
Type: cell-based, human
Settings: 10 nM saRNA, 72 hours, relative to control (Mock)
Description: Human liver cancer cell line Huh7 was cultured in DMEM medium (Gibco), containing 10% of calf serum (Sigma-Aldrich) and 1% of penicillin/streptomycin (Gibco). The cells were cultured at 5% CO2 and 37° C. According to the instructions provided by the manufacturer, RNAiMax (Invitrogen, Carlsbad, Calif.) was used to transfect small activating RNAs at a concentration of 10 nM (unless otherwise specified).
At the end of transfection, the media were discarded, and each well was washed with 150 μL of PBS once. After discarding the PBS, 50 μL of cell lysis buffer (Takara) was added to each well and incubated at room temperature for 5 min. 1 μL of the resulted cell lysis was taken from each well and analyzed by qPCR on an ABI 7500 fast real-time PCR system (Applied Biosystems) using a one-step TB Green™ PrimeScrip™ RT-PCR kit II (Takara, RR086A) Each transfection sample was repeatedly amplified in 3 replicate wells.
Reaction conditions were as follows: reverse transcription reaction (stage 1): 5 min at 42° C., 10 s at 95° C.; PCR reaction (stage 2): 5 s at 95° C., 20 s at 60° C., 45 cycles of amplification. HPRT1 and TBP were used as internal reference genes. PCR primers used for amplifying LHPP, HPRT1 and TBP genes are shown in Table 2, wherein LHPP was amplified using the LHPP F1/R1 primer pair.
To calculate the relative expression level (Erel) of LHPP (target gene) in an saRNA-transfected sample relative to control treatment (Mock), the Ct values of the target gene and the two internal reference genes were substituted into formula 1
Erel=2^(CtT^m^-CtT^s^)/((2^(CtR1^m^-CtR1^s^)*2^(CtR2^m^-CtR2^s^))^(1/2))
wherein CtTm was the Ct value of the target gene from the control (Mock) sample; CtTs was the Ct value of the target gene from the saRNA-treated sample; CtR1m was the Ct value of the internal reference gene 1 from the control (Mock) sample; CtR1s was the Ct value of the internal reference gene 1 from the saRNA-treated sample; CtR2m was the Ct value of the internal reference gene 2 from the control (Mock) sample; and CtR2s was the Ct value of the internal reference gene 2 from the saRNA-treated sample.
In order to obtain saRNAs capable of activating LHPP transcription, Huh7 cells were transfected with each of the aforementioned 290 saRNAs with a transfection concentration of 10 nM, and 72 hours later, according to the same method as described above, the cells were lysed and analyzed by one-step RT-qPCR to obtain the relative (compared with the control (Mock)) expression level of LHPP gene for each saRNA-treated sample. […] The observed maximum activation and maximum inhibition is 3.46 fold and 0.49 fold, respectively, saRNAs with activating activity are referred to as activating saRNAs, and the saRNAs with inhibiting activity are referred to as inhibiting saRNAs.

Substance	Fold of changes in relative LHPP mRNA expression level	Fold of changes in relative LHPP mRNA expression level (log2)
RAG7-889: saRNA duplex; sense UGGACCAGAAGUAAAGUGUTT (SEQ ID NO: 115), antisense ACACUUUACUUCUGGUCCATT (SEQ ID NO: 279) (sugars from the 5' end r19 d2, backbone not given here)	1.19 fold	0.25 log2
RAG7-146: saRNA duplex; sense UUCUGCUUUUCCUGCUCUUTT (SEQ ID NO: 10), antisense AAGAGCAGGAAAAGCAGAATT (SEQ ID NO: 174) (sugars from the 5' end r19 d2, backbone not given here)	1.69 fold	0.76 log2
RAG7-96: saRNA duplex; sense GAAAAGGACACCGUUUCAGTT (SEQ ID NO: 105), antisense CUGAAACGGUGUCCUUUUCTT (SEQ ID NO: 269) (sugars from the 5' end r19 d2, backbone not given here)	1.21 fold	0.27 log2
RAG7-897: saRNA duplex; sense AGCUAUGUUGGACCAGAAGTT (SEQ ID NO: 65), antisense CUUCUGGUCCAACAUAGCUTT (SEQ ID NO: 229) (sugars from the 5' end r19 d2, backbone not given here)	1.31 fold	0.39 log2
RAG7-839: saRNA duplex; sense CGAGGGGCCAUUGAGGAAATT (SEQ ID NO: 158), antisense UUUCCUCAAUGGCCCCUCGTT (SEQ ID NO: 322) (sugars from the 5' end r19 d2, backbone not given here)	1.11 fold	0.15 log2
RAG7-176: saRNA duplex; sense UUUGCCUUUGACCUUUCUUTT (SEQ ID NO: 110), antisense AAGAAAGGUCAAAGGCAAATT (SEQ ID NO: 274) (sugars from the 5' end r19 d2, backbone not given here)	1.20 fold	0.26 log2
RAG7-677: saRNA duplex; sense AUCUAUGCAGGGCUGUUAUTT (SEQ ID NO: 20), antisense AUAACAGCCCUGCAUAGAUTT (SEQ ID NO: 184) (sugars from the 5' end r19 d2, backbone not given here)	1.56 fold	0.64 log2
RAG7-148: saRNA duplex; sense UUUUCUGCUUUUCCUGCUCTT (SEQ ID NO: 67), antisense GAGCAGGAAAAGCAGAAAATT (SEQ ID NO: 231) (sugars from the 5' end r19 d2, backbone not given here)	1.30 fold	0.38 log2
RAG7-726: saRNA duplex; sense GCAUUGUGAUAGUCCCGUUTT (SEQ ID NO: 127), antisense AACGGGACUAUCACAAUGCTT (SEQ ID NO: 291) (sugars from the 5' end r19 d2, backbone not given here)	1.17 fold	0.22 log2
RAG7-826: saRNA duplex; sense AGGAAACUCCUCCCUUUUATT (SEQ ID NO: 157), antisense UAAAAGGGAGGAGUUUCCUTT (SEQ ID NO: 321) (sugars from the 5' end r19 d2, backbone not given here)	1.11 fold	0.15 log2
RAG7-898: saRNA duplex; sense AAGCUAUGUUGGACCAGAATT (SEQ ID NO: 59), antisense UUCUGGUCCAACAUAGCUUTT (SEQ ID NO: 223) (sugars from the 5' end r19 d2, backbone not given here)	1.34 fold	0.43 log2
RAG7-186: saRNA duplex; sense CUUGUCUCAAUUUGCCUUUTT (SEQ ID NO: 78), antisense AAAGGCAAAUUGAGACAAGTT (SEQ ID NO: 242) (sugars from the 5' end r19 d2, backbone not given here)	1.28 fold	0.35 log2
RAG7-684: saRNA duplex; sense CAUCCUCAUCUAUGCAGGGTT (SEQ ID NO: 47), antisense CCCUGCAUAGAUGAGGAUGTT (SEQ ID NO: 211) (sugars from the 5' end r19 d2, backbone not given here)	1.39 fold	0.47 log2
RAG7-846: saRNA duplex; sense AAGGUUCCGAGGGGCCAUUTT (SEQ ID NO: 11), antisense AAUGGCCCCUCGGAACCUUTT (SEQ ID NO: 175) (sugars from the 5' end r19 d2, backbone not given here)	1.68 fold	0.75 log2
RAG7-94: saRNA duplex; sense AAAGGACACCGUUUCAGGGTT (SEQ ID NO: 13), antisense CCCUGAAACGGUGUCCUUUTT (SEQ ID NO: 177) (sugars from the 5' end r19 d2, backbone not given here)	1.64 fold	0.72 log2
RAG7-828: saRNA duplex; sense UGAGGAAACUCCUCCCUUUTT (SEQ ID NO: 108), antisense AAAGGGAGGAGUUUCCUCATT (SEQ ID NO: 272) (sugars from the 5' end r19 d2, backbone not given here)	1.20 fold	0.26 log2
RAG7-33: saRNA duplex; sense UUUGCACCCGGUCUUCUUGTT (SEQ ID NO: 119), antisense CAAGAAGACCGGGUGCAAATT (SEQ ID NO: 283) (sugars from the 5' end r19 d2, backbone not given here)	1.18 fold	0.24 log2
RAG7-130: saRNA duplex; sense CUUUGUCCGCUGAUCUCCUTT (SEQ ID NO: 77), antisense AGGAGAUCAGCGGACAAAGTT (SEQ ID NO: 241) (sugars from the 5' end r19 d2, backbone not given here)	1.28 fold	0.36 log2
RAG7-172: saRNA duplex; sense CCUUUGACCUUUCUUAGGGTT (SEQ ID NO: 81), antisense CCCUAAGAAAGGUCAAAGGTT (SEQ ID NO: 245) (sugars from the 5' end r19 d2, backbone not given here)	1.27 fold	0.34 log2
RAG7-708: saRNA duplex; sense UUUCUUCUCAGCCCAGGUCTT (SEQ ID NO: 106), antisense GACCUGGGCUGAGAAGAAATT (SEQ ID NO: 270) (sugars from the 5' end r19 d2, backbone not given here)	1.21 fold	0.27 log2
RAG7-102: saRNA duplex; sense GCUUCCGAAAAGGACACCGTT (SEQ ID NO: 96), antisense CGGUGUCCUUUUCGGAAGCTT (SEQ ID NO: 260) (sugars from the 5' end r19 d2, backbone not given here)	1.23 fold	0.30 log2
RAG7-693: saRNA duplex; sense GGUCCUAUGCAUCCUCAUCTT (SEQ ID NO: 98), antisense GAUGAGGAUGCAUAGGACCTT (SEQ ID NO: 262) (sugars from the 5' end r19 d2, backbone not given here)	1.22 fold	0.29 log2

— US20220096516A1, “OLIGONUCLEOTIDE MOLECULE AND APPLICATION THEREOF IN TUMOR THERAPY” (Ractigen Therapeutics, priority 2019, published 2022)
